# Measured values taken from patent US12012411B2, “Viral replication inhibitors” (Katholieke Universiteit Leuven, priority 2011, dated 2024).
# System: not listed separately
# Experiment: in vitro
# Conditions: African green monkey, uninfected quiescent Vero-B cells
row,SMILES,CC50 at 4 days [µM]
1,COc1cccc(NC(C(=O)c2cn(C)c3ccccc23)c2ccccc2)c1 (stereo not drawn) [CPD-049],> 134
2,CN(C)C(=O)c1cccc(NC(C(=O)c2c[nH]c3ccccc23)c2ccccc2)c1 (stereo not drawn) [CPD-051],> 125
3,COc1cccc(NC(C(=O)c2c[nH]c3ccccc23)c2ccc(OC)nc2)c1 (stereo not drawn) [CPD-055],50
4,COc1cccc(NC(C(=O)N2CCc3ccccc32)c2ccccc2)c1 (stereo not drawn) [CPD-056],> 139
5,COc1cccc(NC(C(=O)c2c[nH]c3c(Cl)cccc23)c2ccccc2)c1 (stereo not drawn) [CPD-084],> 127
6,COc1cccc(NC(C(=O)c2c[nH]c3ccc(Cl)cc23)c2ccccc2)c1 (stereo not drawn) [CPD-086],12
7,COc1cc(NC(C(=O)c2c[nH]c3ccccc23)c2ccccc2)nc(OC)n1 (stereo not drawn) [CPD-087],> 128
8,COc1cccc(NC(C(=O)c2c[nH]c3ccc(OC)cc23)c2ccccc2)c1 (stereo not drawn) [CPD-092],19
9,COc1cccc(NC(C(=O)c2c[nH]c3cc(Cl)ccc23)c2cc(C)on2)c1 (stereo not drawn) [CPD-116],13
10,COc1cccc(NC(C(=O)c2c[nH]c3c(Cl)cccc23)c2ccc(C#N)cc2)c1 (stereo not drawn) [CPD-120],11
11,COc1cccc(NC(C(=O)c2c[nH]c3cc(C)ccc23)c2ccccc2)c1 (stereo not drawn) [CPD-122],16
12,COc1cccc(NC(C(=O)c2c[nH]c3ccccc23)c2c(F)cc(C#N)cc2F)c1 (stereo not drawn) [CPD-133],19
13,COC(=O)c1ccc2[nH]cc(C(=O)C(Nc3cccc(OC)c3)c3ccccc3)c2c1 (stereo not drawn) [CPD-142],13

# System: DENV-4 strain Dak HD 34 460
# Experiment: Antiviral activity against DENV-4 in Vero-B cells (viral RNA load by RT-qPCR)
# Type: cell-based, Dengue virus
# Conditions: Dengue virus, DENV4, Vero B
row,SMILES,EC50 [µM]
1,COc1cccc(NC(C(=O)c2cn(C)c3ccccc23)c2ccccc2)c1 (stereo not drawn) [CPD-049],2.27
2,CN(C)C(=O)c1cccc(NC(C(=O)c2c[nH]c3ccccc23)c2ccccc2)c1 (stereo not drawn) [CPD-051],32.6
3,COc1cccc(NC(C(=O)c2c[nH]c3ccccc23)c2ccc(OC)nc2)c1 (stereo not drawn) [CPD-055],4.44
4,COc1cccc(NC(C(=O)N2CCc3ccccc32)c2ccccc2)c1 (stereo not drawn) [CPD-056],5.92
5,COc1cccc(NC(C(=O)c2c[nH]c3c(Cl)cccc23)c2ccccc2)c1 (stereo not drawn) [CPD-084],3.09
6,COc1cccc(NC(C(=O)c2c[nH]c3ccc(Cl)cc23)c2ccccc2)c1 (stereo not drawn) [CPD-086],3.57
7,COc1cccc(NC(C(=O)c2c[nH]c3ccc(OC)cc23)c2ccccc2)c1 (stereo not drawn) [CPD-092],6.73

# System: DENV-3 strain H87 prototype
# Experiment: Antiviral activity against DENV-3 in Vero-B cells (viral RNA load by RT-qPCR)
# Type: cell-based, Dengue virus
# Conditions: Dengue virus, DENV3, Vero B
row,SMILES,EC50 [µM]
1,COc1cccc(NC(C(=O)c2cn(C)c3ccccc23)c2ccccc2)c1 (stereo not drawn) [CPD-049],10.5
2,CN(C)C(=O)c1cccc(NC(C(=O)c2c[nH]c3ccccc23)c2ccccc2)c1 (stereo not drawn) [CPD-051],24.2
3,COc1cccc(NC(C(=O)c2c[nH]c3ccccc23)c2ccc(OC)nc2)c1 (stereo not drawn) [CPD-055],3.38
4,COc1cccc(NC(C(=O)N2CCc3ccccc32)c2ccccc2)c1 (stereo not drawn) [CPD-056],69.2
5,COc1cccc(NC(C(=O)c2c[nH]c3c(Cl)cccc23)c2ccccc2)c1 (stereo not drawn) [CPD-084],2.38
6,COc1cccc(NC(C(=O)c2c[nH]c3ccc(Cl)cc23)c2ccccc2)c1 (stereo not drawn) [CPD-086],1.05
7,COc1cccc(NC(C(=O)c2c[nH]c3ccc(OC)cc23)c2ccccc2)c1 (stereo not drawn) [CPD-092],0.93
8,COc1cccc(NC(C(=O)c2c[nH]c3cc(Cl)ccc23)c2cc(C)on2)c1 (stereo not drawn) [CPD-116],9.3
9,COc1cccc(NC(C(=O)c2c[nH]c3c(Cl)cccc23)c2ccc(C#N)cc2)c1 (stereo not drawn) [CPD-120],5.18
10,COc1cccc(NC(C(=O)c2c[nH]c3cc(C)ccc23)c2ccccc2)c1 (stereo not drawn) [CPD-122],8.25
11,COc1cccc(NC(C(=O)c2c[nH]c3ccccc23)c2c(F)cc(C#N)cc2F)c1 (stereo not drawn) [CPD-133],4.17
12,COC(=O)c1ccc2[nH]cc(C(=O)C(Nc3cccc(OC)c3)c3ccccc3)c2c1 (stereo not drawn) [CPD-142],3.97

# System: DENV-2 NGC
# Experiment: Antiviral activity against DENV-2 NGC in Vero-B cells (viral RNA load by RT-qPCR)
# Type: cell-based, Dengue virus
# Conditions: Dengue virus, DENV2, Vero B, DENV-2 in Vero-B cells; inhibition of viral RNA replication by 50% (Table 3)
row,SMILES,EC50 [µM]
1,COc1cccc(NC(C(=O)c2cn(C)c3ccccc23)c2ccccc2)c1 (stereo not drawn) [CPD-049],0.08
2,CN(C)C(=O)c1cccc(NC(C(=O)c2c[nH]c3ccccc23)c2ccccc2)c1 (stereo not drawn) [CPD-051],2.47
3,COc1cccc(NC(C(=O)c2c[nH]c3ccccc23)c2ccc(OC)nc2)c1 (stereo not drawn) [CPD-055],0.07
4,COc1cccc(NC(C(=O)N2CCc3ccccc32)c2ccccc2)c1 (stereo not drawn) [CPD-056],0.45
5,COc1cccc(NC(C(=O)c2c[nH]c3c(Cl)cccc23)c2ccccc2)c1 (stereo not drawn) [CPD-084],0.03
6,COc1cccc(NC(C(=O)c2c[nH]c3ccc(Cl)cc23)c2ccccc2)c1 (stereo not drawn) [CPD-086],0.04
7,COc1cc(NC(C(=O)c2c[nH]c3ccccc23)c2ccccc2)nc(OC)n1 (stereo not drawn) [CPD-087],0.8
8,COc1cccc(NC(C(=O)c2c[nH]c3ccc(OC)cc23)c2ccccc2)c1 (stereo not drawn) [CPD-092],0.1
9,COc1cccc(NC(C(=O)c2c[nH]c3cc(Cl)ccc23)c2cc(C)on2)c1 (stereo not drawn) [CPD-116],0.14
10,COc1cccc(NC(C(=O)c2c[nH]c3c(Cl)cccc23)c2ccc(C#N)cc2)c1 (stereo not drawn) [CPD-120],0.02
11,COc1cccc(NC(C(=O)c2c[nH]c3cc(C)ccc23)c2ccccc2)c1 (stereo not drawn) [CPD-122],0.02
12,COc1cccc(NC(C(=O)c2c[nH]c3ccccc23)c2c(F)cc(C#N)cc2F)c1 (stereo not drawn) [CPD-133],0.04
13,COC(=O)c1ccc2[nH]cc(C(=O)C(Nc3cccc(OC)c3)c3ccccc3)c2c1 (stereo not drawn) [CPD-142],0.1

# System: DENV-1 Djibouti strain D1/H/IMTSSA/98/606
# Experiment: Antiviral activity against DENV-1 in Vero-B cells (viral RNA load by RT-qPCR)
# Type: cell-based, Dengue virus
# Conditions: Dengue virus, DENV1, Vero B
row,SMILES,EC50 [µM]
1,COc1cccc(NC(C(=O)c2cn(C)c3ccccc23)c2ccccc2)c1 (stereo not drawn) [CPD-049],2.21
2,CN(C)C(=O)c1cccc(NC(C(=O)c2c[nH]c3ccccc23)c2ccccc2)c1 (stereo not drawn) [CPD-051],5.76
3,COc1cccc(NC(C(=O)c2c[nH]c3ccccc23)c2ccc(OC)nc2)c1 (stereo not drawn) [CPD-055],1.86
4,COc1cccc(NC(C(=O)N2CCc3ccccc32)c2ccccc2)c1 (stereo not drawn) [CPD-056],10.6
5,COc1cccc(NC(C(=O)c2c[nH]c3c(Cl)cccc23)c2ccccc2)c1 (stereo not drawn) [CPD-084],< 0.5
6,COc1cccc(NC(C(=O)c2c[nH]c3ccc(Cl)cc23)c2ccccc2)c1 (stereo not drawn) [CPD-086],0.97
7,COc1cc(NC(C(=O)c2c[nH]c3ccccc23)c2ccccc2)nc(OC)n1 (stereo not drawn) [CPD-087],6.05
8,COc1cccc(NC(C(=O)c2c[nH]c3cc(Cl)ccc23)c2cc(C)on2)c1 (stereo not drawn) [CPD-116],4.19
9,COc1cccc(NC(C(=O)c2c[nH]c3c(Cl)cccc23)c2ccc(C#N)cc2)c1 (stereo not drawn) [CPD-120],2.31
10,COc1cccc(NC(C(=O)c2c[nH]c3cc(C)ccc23)c2ccccc2)c1 (stereo not drawn) [CPD-122],3.64
11,COc1cccc(NC(C(=O)c2c[nH]c3ccccc23)c2c(F)cc(C#N)cc2F)c1 (stereo not drawn) [CPD-133],2.25
12,COC(=O)c1ccc2[nH]cc(C(=O)C(Nc3cccc(OC)c3)c3ccccc3)c2c1 (stereo not drawn) [CPD-142],1.71
